Several values for one entry are separate records, joined by “and”; a condition that tells them apart may be missing. Equal values may be shown once. Read-outs that look alike come from different tables or passages of the source.
Experiments:
[1] = test system: H3255; experiment: Non Small Cell Lung Cancer proliferation assay (Alamar Blue reduction), H3255; assay type: cell-based, human; conditions: for inhibition at 10 µM: NCI-H3255, primary screening; for inhibition at 10 µM / CONFIRMATION [%] 3255: 10 μM compound in 1% DMSO (v/v); for CONFIRMATION [%] 3255: percentage inhibition
Method in brief: (§1)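 Human NSCLC cells were seeded at 250 cells/well with compound at a final 1% DMSO and treated for 48 hours at 37° C. 1% DMSO served as the high control.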

[2] = test system: H358; experiment: Non Small Cell Lung Cancer proliferation assay (Alamar Blue reduction), H358; assay type: cell-based; conditions: Homo sapiens
Description: These cells have a doubling time of 1-2 days. All cell types are adherent and grow in colonies. The cells should be kept at a density between 50,000 cells/mL -500,000 cells/mL to provide for optimum growth and adequate nutrition. The cell line should be maintained at 37° C. in a humidified atmosphere with 5% CO2 in a sterile cell culture incubator.
Non Small Cell Lung Cancer Proliferation Assay.
High Controls for this assay are made by treating Non Small Cell Lung Cancer cells with 5 ul of 10% DMSO. [Final concentration in this assay is 1% DMSO].
Important Note: All compounds for testing in this assay should be done at the final concentration of 1% DMSO.
After addition, the cells are placed in cell culture incubator at 37° C. for 48 hours for complete treatment.
After drug treatment, cytotoxicity is measured by Alamar Blue reduction.
The cells are incubated for 48 hours at 37° C. to complete the Alamar Blue reduction.
The final step in the assay is to measure the amount of Alamar Blue reduction. […] The Alamar Blue fluorescence is measured at an excitation of 530 nm and emission of 590 nm.
For the NSCLC project, the cell based assay was screened against a small molecule library of approximately 200,000 compounds. The compound library is stored in our automated robotic freezer (Biophile) at −20° C. in 100% DMSO. Compound freeze and thaw cycles are kept to a minimum. […] This assay was performed on a fully automated linear track robotic platform (CRS F3 Robot System, Thermo Electron Corp., Ontario, Canada) utilizing several integrated peripherals for plate handling, liquid dispensing, and readout detection. […] The microplates are then placed at 37° C. for 48 hours to complete treatment of cells with compounds. Next, 5 ul of alamar blue was added using a liquid dispenser (Flexprop Precision Dispenser, Perkin Elmer, Mass., USA) and incubated for 48 hours at 37° C. The alamar blue prompt fluorescence was measured on Victor V (Victor^3 V, Perkin Elmer, Mass., USA) and output data files were loaded into ORIS (Oncology Research Informatics System, MSKCC, NY, USA), a screening data acquisition and analysis platform.
(§2) The dose response studies were done with the following standard procedure. First, the cells were counted and dispensed at 250 cells/well into 384-well microplates with compound. The cells were incubated for 48 hours at 37 C to complete treatment, and then alamar blue was added for an additional 48 hours. Finally, alamar blue reduction was measured and the data was loaded into ORIS, our data screening acquisition platform.

[3] = test system: H2122; experiment: Dose response study (Alamar Blue), H2122; assay type: cell-based; conditions: Homo sapiens, read-out: IC50 H2122
Description: (§3) Dose response studies against 34 compounds from the pyridazinone and phenylfuran-carboxamide class were conducted. […] In addition, Tarceva was included in these dose response studies.
as §2

[4] = in vitro; conditions: human
Description: NHBE (normal human bronchiolar epithelial cells) are primary cells obtained from donor lungs and commercially available from Cambrex. The HPL1D (human peripheral lung epithelial) cell line has been immortalized with the SV40 large T-antigen. WI-38: human lung fibroblast cell line. HPLID, NHBE and WI-38 cells will serve as controls in the chemical screens. WT: wildtype; WT*: over-expressed wildtype.
Compounds were tested in dose response studies from […] to 5 nM against several non small cell lung cancer lines: H358, H827, H1118, H1650, H1734, H1975, H2030, and H3255, and were also studied in a 72 hour cytotoxicity assay against the NHBE and WI-38 cell lines.

[5] = test system: PC9; experiment: Dose response study (Alamar Blue), PC9; assay type: cell-based; conditions: Homo sapiens, read-out: IC50 PC9
Description: as §3, §2

[6] = test system: H23; experiment: Dose response study (Alamar Blue), H23; assay type: cell-based; conditions: Homo sapiens, read-out: IC50 H23
Description: as §3, §2

[7] = test system: H1975; experiment: Non Small Cell Lung Cancer proliferation assay (Alamar Blue reduction), H1975; assay type: cell-based, human; conditions: for inhibition at 10 µM: NCI-H1975, primary screening; for inhibition at 10 µM / CONFIRMATION [%] 1975: 10 μM compound in 1% DMSO (v/v); for CONFIRMATION [%] 1975: percentage inhibition
Method in brief: as §1

[8] = test system: H460; experiment: Dose response study (Alamar Blue), H460; assay type: cell-based; conditions: Homo sapiens, read-out: IC50 H460
Description: as §3, §2

[9] = test system: HPL1D (human peripheral lung epithelial) cell line; experiment: Cell proliferation / dose response (Alamar Blue), HPL1D; assay type: cell-based; conditions: read-out: IC50 HPL1D
Description: WI-38: human lung fibroblast cell line. […] WT: wildtype; WT*: over-expressed wildtype. Dose response studies against 34 compounds from the pyridazinone and phenylfuran-carboxamide class were conducted. […] In addition, Tarceva was included in these dose response studies. The dose response studies were done with the following standard procedure. […] The cells were incubated for 48 hours at 37 C to complete treatment, and then alamar blue was added for an additional 48 hours. Finally, alamar blue reduction was measured and the data was loaded into ORIS, our data screening acquisition platform.

[10] = Homo sapiens, NCI-H3255, 48 h, H3255, 12 point doubling dilution 10 uM to 5 nM, 48 h treatment, alamar blue additional 48 h, read-out: IC50 H3255
[11] = Homo sapiens, NCI-H3255, dose response 10 M to 5 nM, IC50, read-out: Dose Response (uM) H3255
[12] = NCI-H358, H358, 12 point doubling dilution 10 uM to 5 nM, 48 h treatment, alamar blue additional 48 h, read-out: IC50 H358
[13] = NCI-H358, read-out: Dose Response (uM) H358
[14] = NCI-H2122, H2122, 12 point doubling dilution 10 uM to 5 nM, 48 h treatment, alamar blue additional 48 h
[15] = PC-9, PC9, 12 point doubling dilution 10 uM to 5 nM, 48 h treatment, alamar blue additional 48 h
[16] = NCI-H23, H23, 12 point doubling dilution 10 uM to 5 nM, 48 h treatment, alamar blue additional 48 h
[17] = Homo sapiens, NCI-H1975, 48 h, H1975, 12 point doubling dilution 10 uM to 5 nM, 48 h treatment, alamar blue additional 48 h, read-out: IC50 H1975
[18] = Homo sapiens, NCI-H1975, dose response 10 M to 5 nM, IC50, read-out: Dose Response (uM) H1975
[19] = NCI-H460, H460, 12 point doubling dilution 10 uM to 5 nM, 48 h treatment, alamar blue additional 48 h
[20] = HPL1D, 12 point doubling dilution 10 uM to 5 nM, 48 h treatment, alamar blue additional 48 h
[21] = Homo sapiens, NCI-H3255, phenylfuran-2-carboxamide SAR summary, read-out: IC50(uM) 3255
[22] = Homo sapiens, H3255, read-out: PRIMARY HTS [%] H3255 (percentage inhibition)
[23] = Homo sapiens, NCI-H1975, phenylfuran-2-carboxamide SAR summary, read-out: IC50(uM) 1975
[24] = Homo sapiens, H1975, read-out: PRIMARY HTS [%] H1975 (percentage inhibition)
[25] = NCI-H358, 48 h, H358, 12 point doubling dilution 10 uM to 5 nM, 48 h treatment, alamar blue additional 48 h, read-out: IC50 H358

SMILES	IC50 [1, 10] [µM]	IC50 [2, 12] [µM]	IC50 [3, 14] [nM]	IC50 [5, 15] [nM]	IC50 [6, 16] [nM]	IC50 [7, 17] [µM]	IC50 [8, 19] [nM]	IC50 [9, 20] [nM]	IC50 [1, 21] [µM]	inhibition at 10 µM [1, 22] [%]	CONFIRMATION [%] 3255 [1]	IC50 [7, 23] [µM]	inhibition at 10 µM [7, 24] [%]	CONFIRMATION [%] 1975 [7]	IC50 [2, 25] [µM]	IC50 ([3]; NCI-H2122, 48 h) [nM]	IC50 ([5]; PC-9, 48 h) [nM]	IC50 ([6]; NCI-H23, 48 h) [nM]	IC50 ([8]; NCI-H460, 48 h) [nM]	IC50 ([9]; 48 h) [nM]	also measured
Cc1ccc(-n2ncc(Cl)c(Cl)c2=O)cc1 [compound 257016]	1.53	0.78	2070	1130	320	0.47	2550	480													IC50 [1, 11]: 1.32 µM; IC50 [2, 13]: 0.35 µM; IC50 at 72 h ([4]; CytoTox (uM) NHBE): 3.29 µM; IC50 at 72 h ([4]; CytoTox (uM) WI-38): 6.43 µM; IC50 [7, 18]: 0.32 µM
Cc1cccc(-n2ncc(Cl)c(Cl)c2=O)c1C [compound 257018]	1.86	1.13	2160	1570	240	0.54	3510	1300													IC50 [1, 11]: 1.63 µM; IC50 [2, 13]: 0.55 µM; IC50 at 72 h ([4]; CytoTox (uM) NHBE): 3.89 µM; IC50 at 72 h ([4]; CytoTox (uM) WI-38): 7.35 µM; IC50 [7, 18]: 0.35 µM
Cc1cccc(NC(=O)c2ccc([N+](=O)[O-])o2)c1 [compound 71762]	2.41	1.27	4830	1890	830	4.23	1850	> 10000	0.95	100	122% and 97%	1.24	74	59% and 76%							IC50 ([1]; phenylfuran-2-carboxamide SAR summary, read-out: IC50(uM) 3255): 1.01 µM; IC50 ([7]; phenylfuran-2-carboxamide SAR summary, read-out: IC50(uM) 1975): 1.23 µM
Cc1ccc(NC(=O)c2ccc([N+](=O)[O-])o2)cc1 [compound 98697]	2.72					4.57			0.91	83	130%	1.09	70	70%	1.2	5200	2170	910	2200	> 10000	
Cc1cccc(-n2ncc(Cl)c(Cl)c2=O)c1 [compound 104122, 4,5-dichloro-2-m-tolyl-2H-pyridazin-3-one]	0.87					0.29									0.41	1150	650	210	1560	280	inhibition at 10 µM ([1]; Homo sapiens, read-out: percentage inhibition H3255): 98%; IC50 ([1]; dose response 10 M to 5 nM, IC50, read-out: Dose Response (uM) H3255): 0.38 µM; inhibition at 10 µM ([7]; Homo sapiens, read-out: percentage inhibition H1975): 104%; IC50 ([7]; dose response 10 M to 5 nM, IC50, read-out: Dose Response (uM) H1975): 0.14 µM
O=C(Nc1ccc(F)c(Cl)c1)c1ccc([N+](=O)[O-])o1 [compound 87200]	> 10	7.17	> 10000	8670	4550	> 10	> 10000	> 10000	0.69	6	103%	0.44	67	95%							
O=C(Nc1ccc(Cl)cc1)c1ccc([N+](=O)[O-])o1 [compound 98698, 5-nitro-furan-2-carboxylic acid (4-chloro-phenyl)-amide]	1.77					2.63			0.95	20	118%	0.63	74	57%	0.81	3090	1580	600	1620	> 10000	

Source: patent US20100210649A1, “PYRIDAZINONES AND FURAN-CONTAINING COMPOUNDS” (Sloan-Kettering Institute for Cancer Research, priority 2006, published 2010)
